melting point	SMILES
249 to 251 °C	O=c1c2c(Cc3ccccc3)n[nH]c2c2cccnc2n1-c1cccc(OC(F)(F)F)c1 (hydrate or solvate) [Example 1, 3-Benzyl-5-(3-trifluoromethoxyphenyl)-1H-pyrazolo[4,3-c][1,8]-naphthyridin-4(5H)-one]
226 to 228 °C	O=c1c2c(Cc3ccccc3)n[nH]c2c2cccnc2n1-c1cccc(C(F)(F)F)c1 (hydrate or solvate) [Example 2, 3-Benzyl-5-(3-trifluoromethylphenyl)-1H-pyrazolo[4,3-c][1,8]-naphthyridin-4(5H)-one]
300 to 302 °C	Cc1ccc2c3[nH]nc(Cc4ccccc4)c3c(=O)n(-c3ccccc3)c2n1 (hydrate or solvate) [Example 3, 3-Benzyl-7-methyl-5-phenyl-1H-pyrazolo[4,3-c][1,8]-naphthyridin-4(5H)-one]
275 °C (dec.)	O=c1c2c(Cc3ccccc3OC(F)(F)F)n[nH]c2c2cccnc2n1-c1ccccc1 (hydrate or solvate) [Example 4, 5-Phenyl-3-(2-trifluoromethoxybenzyl)-1H-pyrazolo[4,3-c][1,8]naphthyridin-4(5H)-one]
253 to 254 °C	O=c1c2c(Cc3cccc(OC(F)(F)F)c3)n[nH]c2c2cccnc2n1-c1ccccc1 (hydrate or solvate) [Example 5, 5-Phenyl-3-(3-trifluoromethoxybenzyl)-1H-pyrazolo[4,3-c][1,8]naphthyridin-4(5H)-one]
216 to 218 °C	O=c1c2c(Cc3ccc(OC(F)(F)F)cc3)n[nH]c2c2cccnc2n1-c1ccccc1 (hydrate or solvate) [Example 6, 5-Phenyl-3-(4-trifluoromethoxybenzyl)-1H-pyrazolo[4,3-c][1,8]naphthyridin-4(5H)-one]
269 to 272 °C	O=c1c2c(Cc3ccccc3)n[nH]c2c2ncccc2n1-c1ccccc1 (hydrate or solvate) [Example 30, 3-Benzyl-5-phenyl-1H-pyrazolo[4,3-c][1,5]naphthyridin-4(5H)-one]
216 to 219 °C	O=c1c2c(Cc3ccc(C(F)(F)F)cc3)n[nH]c2c2cccnc2n1-c1ccccc1 [Example 7, 5-Phenyl-3-(4-trifluoromethylbenzyl)-1H-pyrazolo[4,3-c][1,8]naphthyridin-4(5H)-one]
303 to 305 °C	O=c1c2c(Cc3cccc(C(F)(F)F)c3)n[nH]c2c2cccnc2n1-c1ccccc1 [Example 9, 5-Phenyl-3-(3-trifluoromethylbenzyl)-1H-pyrazolo[4,3-c][1,8]naphthyridin-4(5H)-one]

More lines, now with the values behind:

SMILES	melting point
COCc1n[nH]c2c1c(=O)n(-c1ccccc1)c1ncccc21 (hydrate or solvate) [Example 10, 3-(Methoxymethyl)-5-phenyl-1H-pyrazolo[4,3-c][1,8]naphthyridin-4(5H)-one]	263 to 265 °C
CC(c1ccccc1)c1n[nH]c2c1c(=O)n(-c1ccccc1)c1ncccc21 (stereo not shown) (hydrate or solvate) [Example 11, 5-Phenyl-3-(1-phenylethyl)-1H-pyrazolo[4,3-c][1,8]naphthyridin-4(5H)-one]	267 to 268 °C
COc1ccccc1Cc1n[nH]c2c1c(=O)n(-c1cccc(OC(F)(F)F)c1)c1ncccc21 (hydrate or solvate) [Example 31, 3-(2-Methoxybenzyl)-5-(3-trifluoromethoxyphenyl)-1H-pyrazolo[4,3-c][1,8]-naphthyridin-4(5H)-one]	243 to 245 °C
O=c1c2c(Cc3ccc(F)cc3)n[nH]c2c2cccnc2n1-c1cccc(OC(F)(F)F)c1 (hydrate or solvate) [Example 32, 3-(4-Fluorobenzyl)-5-(3-trifluoromethoxyphenyl)-1H-pyrazolo[4,3-c][1,8]-naphthyridin-4(5H)-one]	226 to 228 °C
O=c1c2c(Cc3ccccc3Cl)n[nH]c2c2cccnc2n1-c1cccc(OC(F)(F)F)c1 (hydrate or solvate) [Example 33, 3-(2-Chlorobenzyl)-5-(3-trifluoromethoxyphenyl)-1H-pyrazolo[4,3-c][1,8]-naphthyridin-4(5H)-one]	273 to 275 °C
Cc1ccccc1Cc1n[nH]c2c1c(=O)n(-c1cccc(OC(F)(F)F)c1)c1ncccc21 (hydrate or solvate) [Example 34, 3-(2-Methylbenzyl)-5-(3-trifluoromethoxyphenyl)-1H-pyrazolo[4,3-c][1,8]-naphthyridin-4(5H)-one]	240 to 242 °C
O=c1c2c(Cc3ccccc3[N+](=O)[O-])n[nH]c2c2cccnc2n1-c1cccc(OC(F)(F)F)c1 (hydrate or solvate) [Example 35, 3-(2-Nitrobenzyl)-5-(3-trifluoromethoxyphenyl)-1H-pyrazolo[4,3-c][1,8]-naphthyridin-4(5H)-one]	274 to 276 °C
COc1ccccc1Cc1n[nH]c2c1c(=O)n(-c1cccc(C(F)(F)F)c1)c1ncccc21 (hydrate or solvate) [Example 37, 3-(2-Methoxybenzyl)-5-(3-trifluoromethylphenyl)-1H-pyrazolo[4,3-c][1,8]-naphthyridin-4(5H)-one]	229 to 231 °C
O=c1c2c(Cc3ccc(F)cc3)n[nH]c2c2cccnc2n1-c1cccc(C(F)(F)F)c1 (hydrate or solvate) [Example 38, 3-(4-Fluorobenzyl)-5-(3-trifluoromethylphenyl)-1H-pyrazolo[4,3-c][1,8]-naphthyridin-4(5H)-one]	243 to 245 °C
O=c1c2c(Cc3ccccc3Cl)n[nH]c2c2cccnc2n1-c1cccc(C(F)(F)F)c1 (hydrate or solvate) [Example 39, 3-(2-Chlorobenzyl)-5-(3-trifluoromethylphenyl)-1H-pyrazolo[4,3-c][1,8]-naphthyridin-4(5H)-one]	276 to 278 °C
Cc1ccccc1Cc1n[nH]c2c1c(=O)n(-c1cccc(C(F)(F)F)c1)c1ncccc21 (hydrate or solvate) [Example 40, 3-(2-Methylbenzyl)-5-(3-trifluoromethylphenyl)-1H-pyrazolo[4,3-c][1,8]-naphthyridin-4(5H)-one]	249 to 252 °C
O=c1c2c(Cc3ccccc3[N+](=O)[O-])n[nH]c2c2cccnc2n1-c1cccc(C(F)(F)F)c1 (hydrate or solvate) [Example 41, 3-(2-Nitrobenzyl)-5-(3-trifluoromethylphenyl)-1H-pyrazolo[4,3-c][1,8]-naphthyridin-4(5H)-one]	282 to 284 °C
O=c1c2c(CC3CCOCC3)n[nH]c2c2cccnc2n1-c1ccccc1 (hydrate or solvate) [Example 44, 5-Phenyl-3-(tetrahydro-2H-pyran-4-ylmethyl)-1H-pyrazolo[4,3-c][1,8]naphthyridin-4(5H)-one]	228 to 234 °C
O=c1c2c(CCCCCCc3ccccc3)n[nH]c2c2cccnc2n1-c1ccccc1 [Example 12, 5-Phenyl-3-(6-phenylhexyl)-1H-pyrazolo[4,3-c][1,8]naphthyridin-4(5H)-one]	150 to 151 °C
O=c1c2c(CC3CCCCC3)n[nH]c2c2cccnc2n1-c1ccccc1 [Example 13, 3-Cyclohexylmethyl-5-phenyl-1H-pyrazolo[4,3-c][1,8]naphthyridin-4(5H)-one]	280 to 281 °C
O=c1c2c(CCC(F)(F)F)n[nH]c2c2cccnc2n1-c1ccccc1 [Example 14, 5-Phenyl-3-(3,3,3-trifluoropropyl)-1H-pyrazolo[4,3-c][1,8]naphthyridin-4(5H)-one]	272 to 274 °C

Reference: patent publication US8193356B2, “Heterocycle compound, and production process and application thereof” (Aska Pharmaceutical Co., Ltd., priority 2005, dated 2012)
